Measured values from article PMC10383849, “Novel Molecular Consortia of Cannabidiol with Nonsteroidal Anti-Inflammatory Drugs Inhibit Emerging Coronaviruses’ Entry” (Pathogens, 2023).
“Also recorded” adds a separate entry of the source. Like-named read-outs stand apart in the source and are kept apart here.

Tests used:
[1] = tested on: VSV-pseudotypes bearing SARS-CoV-1 S protein; assay: microbe, parasite or virus in culture; format: cell-based; conditions: for inhibitory effect on SARS-CoV-1 virus entry (in words): 1-100 μg/mL
[2] = tested on: VSV-pseudotypes bearing SARS-CoV-2 S protein; assay: microbe, parasite or virus in culture; format: cell-based; conditions: for inhibitory effect on SARS-CoV-2 entry (in words): 1-100 μg/mL; for IC50: Severe acute respiratory syndrome coronavirus 2, HEK-293T, read-out: IC50, SARS-CoV-2 entry
[3] = tested on: influenza virus A/Puerto Rico/8/34; format: cell-based
[4] = tested on: influenza virus A/Puerto Rico/8/34; format: cell-based; remark: listed apart in the source
[5] = tested on: SARS-CoV-2; conditions: ref 43 (van Breemen et al.); cited from earlier work
[6] = tested on: SARS-CoV-2; conditions: lung epithelial cells; ref 41 (Nguyen et al.); cited from earlier work
[7] = tested on: influenza virus; conditions: cited from earlier work

## C=C(C)C1CCC(C)=CC1c1c(OC(=O)C(C)c2ccc(CC(C)C)cc2)cc(CCCCC)cc1OC(=O)C(C)c1ccc(CC(C)C)cc1 (centres unmarked) [CBD-I]
[1]
  inhibitory effect on SARS-CoV-1 virus entry (in words): did not find any significant inhibitory effect
[2]
  inhibitory effect on SARS-CoV-2 entry (in words): significantly inhibited; also recorded: significantly reduced
  IC50: < 1 µg/mL

## C=C(C)C1CCC(C)=CC1c1c(OC(=O)C(C)c2ccc3cc(OC)ccc3c2)cc(CCCCC)cc1OC(=O)C(C)c1ccc2cc(OC)ccc2c1 (centres unmarked) [CBD-N]
[1]; 1 μg/mL
  fold reduction in luciferase activity, SARS-CoV-1: approximately 2 fold
[1]; 50 μg/mL
  fold decrease in luciferase activity, SARS-CoV-1: greater than 10 fold
[1]; 100 μg/mL
  fold decrease in luciferase activity, SARS-CoV-1: greater than 10 fold
[1]
  inhibitory effect on SARS-CoV-1 virus entry (in words): significant reduction; also recorded: significant inhibitory activity
[1]; Severe acute respiratory syndrome coronavirus, HEK-293T, read-out: IC50, SARS-CoV-1 virus entry
  IC50: < 1 µg/mL
[2]
  fold inhibition of SARS-CoV-2 entry: greater than 10 fold
  inhibitory effect on SARS-CoV-2 entry (in words): significantly inhibited; also recorded: significantly reduced
  IC50: < 1 µg/mL
[3]
  viral copy numbers in the supernatants vs mock: did not find any effect
[4]
  viral copy numbers in the supernatants vs mock: did not find any effect

## CCCCCc1cc(O)c(C/C=C(\C)CCC=C(C)C)c(O)c1C(=O)O [CBGA, cannabigerolic acid]
[5]
  block of SARS-CoV-2 entry into cells (in words): significantly block SARS-CoV-2 entry

## C=C(C)[C@@H]1CCC(C)=C[C@H]1c1c(O)cc(CCCCC)cc1O [CBD, cannabidiol]
[6]
  inhibition of SARS-CoV-2 replication (in words): inhibit SARS-CoV-2 replication

## COc1ccc2cc([C@H](C)C(=O)O)ccc2c1 [naproxen]
[7]
  anti-influenza virus activity (in words): broad anti-influenza virus activity

## C=C(C)[C@@H]1CCC(CO)=C[C@H]1c1c(O)cc(CCCCC)cc1O [7-OH-CBD]
[6]
  inhibition of SARS-CoV-2 replication (in words): inhibit SARS-CoV-2 replication

## C=C(C)C1CCC(C)=CC1c1c(OC(=O)C(C)c2cccc(C(=O)c3ccccc3)c2)cc(CCCCC)cc1OC(=O)C(C)c1cccc(C(=O)c2ccccc2)c1 (centres unmarked) [CBD-K]
[1]
  inhibitory effect on SARS-CoV-1 virus entry (in words): did not find any significant inhibitory effect
[2]
  inhibitory effect on SARS-CoV-2 entry (in words): non-significant decrease in luciferase activity; also recorded: did not significantly affect

## C=C(C)[C@@H]1CCC(C)=C[C@H]1c1c(O)cc(CCCCC)c(C(=O)O)c1O [CBDA, cannabidiolic acid]
[5]
  block of SARS-CoV-2 entry into cells (in words): significantly block SARS-CoV-2 entry
